Source: patent publication US20230348362A1, “LIPID COMPOUNDS AND LIPID NANOPARTICLE COMPOSITIONS” (Suzhou Abogen Biosciences Co., Ltd., priority 2021, published 2023)

How the values were obtained:
Type in all cases: physicochemical
[1] = Encapsulation efficiency of lipid nanoparticles, Quant-it Ribogreen RNA assay; details: LNP of lipid/DSPC/cholesterol/PEG-lipid 50:10:38.5:1.5 encapsulating hEPO mRNA
Description: (§1) Briefly, a cationic lipid provided herein, DSPC, cholesterol, and PEG-lipid were solubilized in ethanol at a molar ratio of 50:10:38.5:1.5, and mRNA were diluted in 10 to 50 mM citrate buffer, pH=4. The LNPs were prepared at a total lipid to mRNA weight ratio of approximately 10:1 to 30:1 by mixing the ethanolic lipid solution with the aqueous mRNA solution at a volume ratio of 1:3 using a microfluidic apparatus, total flow rate ranging from 9-30 mL/min. Ethanol were thereby removed and replaced by DPBS using dialysis. Finally, the lipid nanoparticles were filtered through a […] sterile filter.
(§2) Lipid nanoparticle size were determined by dynamic light scattering using a Malvern Zetasizer Nano ZS (Malvern UK) using a […] backscatter detection mode. The encapsulation efficiency of lipid nanoparticles were determined using a Quant-it Ribogreen RNA quantification assay kit (Thermo Fisher Scientific, UK) according to the manufacturer's instructions.

[2] = Lipid nanoparticle size and polydispersity by dynamic light scattering; details: LNP of lipid/DSPC/cholesterol/PEG-lipid 50:10:38.5:1.5 encapsulating hEPO mRNA
Description: as §1, §2

[3] = Apparent pKa of LNP formulations, TNS fluorescence assay; details: LNP cationic lipid/DSPC/cholesterol/DMG-PEG 50/10/38.5/1.5 mol %
Description: As reported in literature, the apparent pKa of LNP formulations correlates with the delivery efficiency of LNPs for nucleic acids in vivo. The apparent pKa of each formulation was determined using an assay based on fluorescence of 2-(p-toluidino)-6-napthalene sulfonic acid (TNS). LNP formulations comprising of cationic lipid/DSPC/cholesterol/DMG-PEG (50/10/38.5/1.5 mol %) in PBS were prepared as described above. TNS was prepared as a 300 μM stock solution in distilled water. LNP formulations were diluted to 0.1 mg/mL total lipid in 3 mL of buffered solutions containing 50 mM sodium citrate, 50 mM sodium phosphate, 50 mM sodium borate, and 30 mM sodium chloride where the pH ranged from 3 to 9. An aliquot of the TNS solution was added to give a final concentration of […] and following vortex mixing fluorescence intensity was measured at room temperature in a Molecular Devices Spectramax iD3 spectrometer using excitation and mission wavelengths of 325 nm and 435 nm. A sigmoidal best fit analysis was applied to the fluorescence data and the pKa value was measured as the pH giving rise to half-maximal fluorescent intensity.

## CCCCCCCCCCCOC(=O)CCCCCN(CCN(CCO)CCCCCC(=O)OCC(CCCCCC)CCCCCCCC)C1CC1 (centres unmarked) [Compound 3]
[1]
  Encapsulation Efficiency: 93.6%
[2]
  polydispersity: 0.131
  size (nm): 73.33 nm
[3]
  Apparent Pka: 6.32

## CCCCCCCCCCCOC(=O)CCCCCN(CCN(CCO)CCCCCC(=O)OCC(CCCCCC)CCCCCCCC)C1CCC1 (centres unmarked) [Compound 4]
[1]
  Encapsulation Efficiency: 91.9%
[2]
  polydispersity: 0.076
  size (nm): 90.8 nm
[3]
  Apparent Pka: 6.709

## CCCCCCCCCCCOC(=O)CCCCCN(CCN(CCO)CCCCCC(=O)OCC(CCCCCC)CCCCCCCC)C1CCCC1 (centres unmarked) [Compound 5]
[1]
  Encapsulation Efficiency: 92.7%
[2]
  polydispersity: 0.073
  size (nm): 99.12 nm
[3]
  Apparent Pka: 6.56

## CCCCCCCCC(CCCCCC)COC(=O)CCCCCN(CCO)CCN(CCCCCC(=O)OCC(CCCCCC)CCCCCCCC)C1CCC1 (centres unmarked) [Compound 7]
[1]
  Encapsulation Efficiency: 96.5%
[2]
  polydispersity: 0.06
  size (nm): 72.78 nm
[3]
  Apparent Pka: 6.427

## CCCCCCCCC(CCCCCC)COC(=O)CCCCCN(CCO)CCN(CCCCCC(=O)OCC(CCCCCC)CCCCCCCC)C1CCCC1 (centres unmarked) [Compound 8]
[1]
  Encapsulation Efficiency: 95.8%
[2]
  polydispersity: 0.136
  size (nm): 65.15 nm
[3]
  Apparent Pka: 6.401

## CCCCCCCCC(CCCCCCCC)COC(=O)CCCCCN(CCO)CCN(CCCCCC(=O)OCC(CCCCCCCC)CCCCCCCC)C1CCC1 [Compound 10]
[1]
  Encapsulation Efficiency: 86.6%
[2]
  polydispersity: 0.168
  size (nm): 70.21 nm
[3]
  Apparent Pka: 6.176

## CCCCCCCCC(CCCCCCCC)CNC(=O)CCCCCN(CCO)CCN(CCCCCC(=O)NCC(CCCCCCCC)CCCCCCCC)C1CCCC1 [Compound 12]
[1]
  Encapsulation Efficiency: 89.5%
[2]
  polydispersity: 0.062
  size (nm): 58.17 nm
[3]
  Apparent Pka: 6.685

## CCCCCCCCC(CCCCCCCC)CNC(=O)CCCCCN(CCO)CCN(CCCCCC(=O)NCC(CCCCCCCC)CCCCCCCC)C1CCCCC1 [Compound 13]
[1]
  Encapsulation Efficiency: 83.3%
[2]
  polydispersity: 0.105
  size (nm): 60.71 nm
[3]
  Apparent Pka: 6.633

## CCCCCCCCC(CCCCCCCC)CNC(=O)CCCCCN(CCO)CCN(CCCCCC(=O)OCC(CCCCCCCC)CCCCCCCC)C1CCC1 [Compound 15]
[1]
  Encapsulation Efficiency: 86.0%
[2]
  polydispersity: 0.022
  size (nm): 65.95 nm
[3]
  Apparent Pka: 6.724

## CCCCCCCCC(CCCCCCCC)CNC(=O)CCCCCN(CCO)CCN(CCCCCC(=O)OCC(CCCCCCCC)CCCCCCCC)C1CCCC1 [Compound 16]
[1]
  Encapsulation Efficiency: 99.2%
[2]
  polydispersity: 0.035
  size (nm): 59.48 nm
[3]
  Apparent Pka: 6.757

## CCCCCCCCC(CCCCCCCC)CNC(=O)CCCCCN(CCO)CCN(CCCCCC(=O)OCC(CCCCCCCC)CCCCCCCC)C1CCCCCC1 [Compound 17]
[1]
  Encapsulation Efficiency: 98.9%
[2]
  polydispersity: 0.033
  size (nm): 58.8 nm
[3]
  Apparent Pka: 6.671

## CCCCC/C=C\CCCC(CCC/C=C\CCCCC)COC(=O)CCCCCN(CCO)CCN(CCCCCC(=O)OCC(CCC/C=C\CCCCC)CCC/C=C\CCCCC)C1CCCCC1 [Compound 18]
[1]
  Encapsulation Efficiency: 96.4%
[2]
  polydispersity: 0.049
  size (nm): 56.64 nm
[3]
  Apparent Pka: 6.018

## CCCCC/C=C\CCCOC(=O)CCCCCN(CCN(CCO)CCCCCC(=O)OCC(CCCCCCCC)CCCCCCCC)C1CCCCC1 [Compound 19]
[1]
  Encapsulation Efficiency: 90.2%
[2]
  polydispersity: 0.046
  size (nm): 80.6 nm
[3]
  Apparent Pka: 6.269

## CCCCCCCCC(CCCCCCCC)CNC(=O)CCCCCN(CCO)CCN(CCCCCC(=O)OCC(CCCCCCCC)CCCCCCCC)C1CCCCC1 [Compound 23]
[1]
  Encapsulation Efficiency: 95.5%
[2]
  polydispersity: 0.039
  size (nm): 57.5 nm
[3]
  Apparent Pka: 6.686

## CCCCCCCCC(CCCCCC)COC(=O)CCCCCN(CCO)CCN(CCCCCC(=O)OCC(CCCCCC)CCCCCCCC)C1CCCCCC1 (centres unmarked) [Compound 24]
[1]
  Encapsulation Efficiency: 93.90%
[2]
  polydispersity: 0.114
  size (nm): 57.78 nm
[3]
  Apparent Pka: 6.162

## CCCCCCCCCCCCCCCCC(CN(CCO)CCN(CC(CCCCCCCCCCCCCCCC)OCCCCCCCC)C1CCC1)OCCCCCCCC (centres unmarked) [Compound 25]
[1]
  Encapsulation Efficiency: 90.67%
[2]
  polydispersity: 0.068
  size (nm): 50.59 nm
[3]
  Apparent Pka: 4.853

## CCCCCCCCC(CCCCCCCC)COC(=O)CCCCCN(C)CCN(CCO)CCCCCC(=O)OCC(CCCCCCCC)CCCCCCCC [Compound 26]
[1]
  Encapsulation Efficiency: 97.57%
[2]
  polydispersity: 0.13
  size (nm): 63.47 nm
[3]
  Apparent Pka: 7.024

## CCCCCCCCC(CCCCCCCC)COC(=O)CCCCCN(CC)CCN(CCO)CCCCCC(=O)OCC(CCCCCCCC)CCCCCCCC [Compound 27]
[1]
  Encapsulation Efficiency: 95.20%
[2]
  polydispersity: 0.118
  size (nm): 57.08 nm
[3]
  Apparent Pka: 6.858

## CCCCCCCCC(CCCCCCCC)COC(=O)CCCCCN(CCO)CCN(CCCCCC(=O)OCC(CCCCCCCC)CCCCCCCC)C1CCOCC1 [Compound 28]
[1]
  Encapsulation Efficiency: 92.4%
[2]
  polydispersity: 0.045
  size (nm): 62.35 nm
[3]
  Apparent Pka: 6.686

## CCCCCCCCC(CCCCCCCC)COC(=O)CCCCCN(CCO)CCN(CCCCCC(=O)OCC(CCCCCCCC)CCCCCCCC)C1CCC(C(F)(F)F)CC1 (centres unmarked) [Compound 29]
[1]
  Encapsulation Efficiency: 93.5%
[2]
  polydispersity: 0.09
  size (nm): 59.02 nm
[3]
  Apparent Pka: 6.073

## CCCCCCCCC(CCCCCCCC)COC(=O)CCCCCN(CCO)CCN(CCCCCC(=O)OCC(CCCCCCCC)CCCCCCCC)C1CCSCC1 [Compound 30]
[1]
  Encapsulation Efficiency: 92.9%
[2]
  polydispersity: 0.115
  size (nm): 53.56 nm
[3]
  Apparent Pka: 6.131

## CCCCCCCCC(CCCCCCCC)COC(=O)CCCCCN(CCO)CCN(CCCCCC(=O)OCC(CCCCCCCC)CCCCCCCC)C1CCC(C)(C)CC1 [Compound 31]
[1]
  Encapsulation Efficiency: 88.2%
[2]
  polydispersity: 0.092
  size (nm): 54.55 nm
[3]
  Apparent Pka: 5.708

## CCCCCCCCC(CCCCCCCC)CNC(=O)CCCCCN1CCC(N(CCO)CCCCCC(=O)OCC(CCCCCCCC)CCCCCCCC)CC1 [Compound 171]
[1]
  Encapsulation Efficiency: 96.23%
[2]
  polydispersity: 0.076
  size (nm): 76.26 nm

## CCCCCCCCC(CCCCCCCC)CNC(=O)CCCCCN1CCC(N(CCO)CCCCCC(=O)NCC(CCCCCCCC)CCCCCCCC)CC1 [Compound 172]
[1]
  Encapsulation Efficiency: 93.55%
[2]
  polydispersity: 0.061
  size (nm): 69.59 nm

## CCCCCCCCCCCOC(=O)CCCCCN1CCC(N(CCO)CCCCCC(=O)OCC(CCCCCCCC)CCCCCCCC)CC1 [Compound 173]
[1]
  Encapsulation Efficiency: 95.29%
[2]
  polydispersity: 0.068
  size (nm): 61.61 nm

## CCCCCCCCCCCOC(=O)CCCCCN1CCC(N(CCO)CCCCCCCC(=O)OC(CCCCCCCC)CCCCCCCC)CC1 [Compound 174]
[1]
  Encapsulation Efficiency: 91.79%
[2]
  polydispersity: 0.063
  size (nm): 78.27 nm

## CCCCCCCCCOC(=O)CCCCCCCN(CCO)C1CCN(CCCCCCCC(=O)OC(CCCCCCCC)CCCCCCCC)CC1 [Compound 176]
[1]
  Encapsulation Efficiency: 95.27%
[2]
  polydispersity: 0.123
  size (nm): 65.70 nm

## CCCCCCCC(=O)OCC(CCCCN1CCC(N(CCO)CCCCC(COC(=O)CCCCCCC)COC(=O)CCCCCCC)CC1)COC(=O)CCCCCCC [Compound 180]
[3]
  Apparent Pka: 6.699

## CCCCCCCCC(CCCCCC)CNC(=O)CCCCCN(CCCCN(CCO)CCCCC(COC(=O)CCCCCCC)COC(=O)CCCCCCC)C1CCCC1 (centres unmarked) [Compound 196]
[1]
  Encapsulation Efficiency: 86.33%
[2]
  polydispersity: 0.18
  size (nm): 104.1 nm

## CCCCCCCCC(CCCCCC)CNC(=O)CCCCCN(CCCCN(CCO)CCCCC(COC(=O)CCCCCCC)COC(=O)CCCCCCC)C1CCCCC1 (centres unmarked) [Compound 197]
[1]
  Encapsulation Efficiency: 91.45%
[2]
  polydispersity: 0.158
  size (nm): 70.01 nm

## CCCCCCCCC(CCCCCC)CNC(=O)CCN(CCO)CCN(CCCCC(COC(=O)CCCCCCC)COC(=O)CCCCCCC)C1CCCCC1 (centres unmarked) [Compound 211]
[1]
  Encapsulation Efficiency: 84.88%
[2]
  polydispersity: 0.035
  size (nm): 112.6 nm

## CCCCCCCCC(CCCCCC)CNC(=O)CCN(CCO)CCN(CCCCC(COC(=O)CCCCCCC)COC(=O)CCCCCCC)C1CCCCCC1 (centres unmarked) [Compound 212]
[1]
  Encapsulation Efficiency: 87.31%
[2]
  polydispersity: 0.048
  size (nm): 122.1 nm

## CCCCCCCCC(CCCCCC)CNC(=O)CCN(CCO)CCN(CCCCC(COC(=O)CCCCCCC)COC(=O)CCCCCCC)C1CCCCCCC1 (centres unmarked) [Compound 213]
[1]
  Encapsulation Efficiency: 88.38%
[2]
  polydispersity: 0.07
  size (nm): 110.8 nm
